{
  "source": "paper doi:10.1101/2024.12.09.627564",
  "about": "“Cannabinoid inhibition of mechanosensitive K^+ channels” (bioRxiv, 2024)",
  "key": {"TRAAKA270P": {"molecular_target": "T1, TRAAKA270P (Homo sapiens, UniProt Q9NYG8, A244P)", "T1 construct": "The transcribed messages encode H. sapiens TRAAK amino acids 1–393; expressed in transfected cells; host or cells: Xenopus laevis oocytes, cRNA injection", "T1 sequence (Q9NYG8 1-393 A244P)": "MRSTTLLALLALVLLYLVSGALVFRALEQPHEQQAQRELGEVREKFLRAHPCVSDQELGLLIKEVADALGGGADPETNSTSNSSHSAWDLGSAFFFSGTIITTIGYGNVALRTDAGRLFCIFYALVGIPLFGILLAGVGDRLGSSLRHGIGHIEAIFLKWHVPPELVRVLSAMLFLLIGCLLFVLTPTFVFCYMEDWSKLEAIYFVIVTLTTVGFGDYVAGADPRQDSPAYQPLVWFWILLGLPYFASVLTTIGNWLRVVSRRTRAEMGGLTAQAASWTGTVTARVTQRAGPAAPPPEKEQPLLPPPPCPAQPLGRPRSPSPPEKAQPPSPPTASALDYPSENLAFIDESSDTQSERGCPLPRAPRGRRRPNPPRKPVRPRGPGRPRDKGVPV", "assay": "Excised patch recording of TRAAK mutant A270P", "type": "biochemical", "text": "(§1) For patch clamp recording from Xenopus oocytes, genes encoding full-length Homo sapiens TRAAK (UniProt Q9NYG8–2), TREK-1 (UniProt O95069), and TREK-2 (UniProt P57789) were codon optimized for eukaryotic expression, synthesized (Genewiz), and cloned into a modified pGEMHE vector using Xho1 and EcoR1 restriction sites. The transcribed messages encode H. sapiens TRAAK amino acids 1–393, TREK-1 amino acids 1–426, or TREK-2 amino acids 1–538 with an additional three amino acids (SNS) at the C terminus. TRAAK mutants were introduced by polymerase chain reaction (PCR). Linearized DNA was transcribed in vitro using T7 polymerase. Complementary RNA (0.1 to 10 ng for TRAAK, TREK-1, TREK-2, and mutants) in 50 nL H2O was injected into Xenopus laevis oocytes extracted from anesthetized frogs. Currents were recorded at 25 °C from inside-out patches excised from oocytes 1 to 5 d after RNA injection. […]\n(§2) Patches were evaluated with voltage-step protocols to confirm TRAAK expression and minimal non-specific leak based on reversal potential. Currents were recorded using an Axopatch 200B amplifier (Molecular Devices) at a bandwidth of 1 kHz and digitized with an Digidata 1550B (Molecular Devices) at 100–500 kHz using pClamp10.7 software. […] In an effort to minimize variability associated with differences in resting membrane tension, we targeted patches with low basal curvature and low resting channel activity and ensured measured pressure difference across the patch was as close to zero as possible at rest to prevent mechanical activation of channels. Data were analyzed using Clampfit 10.7, Excel, and Graphpad Prism software. […]\nTo avoid cannabinoid absorption to plastic, cannabinoid solutions were made in glass vials and diluted by weight, perfusion was performed using glass tubing pulled from borosilicate glass Pasteur pipettes (Fisherbrand, Cat# 13–678-20C), and recordings were performed in glass chambers. Channel activity was continuously recorded during perfusion steps. […]"}, "TRAAKP259L": {"molecular_target": "T2, TRAAKP259L (Homo sapiens, UniProt Q9NYG8, P233L)", "T2 construct": "The transcribed messages encode H. sapiens TRAAK amino acids 1–393; expressed in transfected cells; host or cells: Xenopus laevis oocytes, cRNA injection", "T2 sequence (Q9NYG8 1-393 P233L)": "T1 sequence (Q9NYG8 1-393 A244P) with P233L, P244A", "assay": "Excised patch recording of TRAAK mutant P259L", "type": "biochemical", "text": "as §1, with “Complementary RNA (0.1 to 10 ng for TRAAK, TREK-1, TREK-2, and mutants) in 50 nL H2O was injected into Xenopus laevis oocytes extracted from anesthetized frogs.” left out\nas §2, with “channels.” for “channels. Data were analyzed using Clampfit 10.7, Excel, and Graphpad Prism software.”"}, "TRPV1–4": {"tested_on": "TRPV1–4", "design": "method as in PMID 30697147, PMID 31566564", "settings": "activation; cited from earlier work"}, "TRPA1": {"tested_on": "TRPA1", "design": "method as in PMID 30697147, PMID 31566564", "settings": "activation; cited from earlier work"}},
  "note": "Where a chain is given by its changes, count along the chain named.",
  "data": [
    {"smiles": "C=C(C)[C@@H]1CCC(C)=C[C@H]1c1c(O)cc(CCCCC)cc1O", "note": "[CBD, Cannabidiol]", "values": [
      {"measurement": "IC50", "setting": "TRAAKA270P", "result": "1120 ± 40", "unit": "nM"},
      {"measurement": "inhibition of channel activity at high concentration", "setting": "TRAAKA270P; 10 μM CBD", "result": "fully inhibited"},
      {"measurement": "fold less sensitive than wild-type TRAAK", "setting": "TRAAKA270P; A270P vs wild-type", "result": "~ 8 fold"},
      {"measurement": "IC50", "setting": "TRAAKP259L", "result": "156 ± 8", "unit": "nM"},
      {"measurement": "EC50", "setting": "TRPV1–4", "result": "1000 to 4000", "unit": "nM"},
      {"measurement": "EC50", "setting": "TRPA1", "result": 110, "unit": "nM"}
    ]}
  ]
}
